Key:
Assay in all cases: Enzymatic activity of PI3K isoforms, TR-FRET assay (PIP3 formation)
Assay type in all cases: biochemical
PI3Kα = PI3Kα (Homo sapiens (Human), UniProt P42336); details: bound given in uM
Outline: (§1)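 Heterodimeric recombinant class I PI3K; PIP3 product displaces labeled PIP3 from GRP-1 PH domain, lowering TR-FRET. Reaction 30 min at 25° C, stopped with 10 mM EDTA, 10 nM labeled-PIP3, 35 nM Eu-GRP-1. Read Ex 340 nm, Em 615/665 nm; IC50 in nM.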

PI3Kδ = PI3Kδ (Homo sapiens (Human), UniProt O00329); details: bound given in nM
Chain of PI3Kδ (O00329 whole entry): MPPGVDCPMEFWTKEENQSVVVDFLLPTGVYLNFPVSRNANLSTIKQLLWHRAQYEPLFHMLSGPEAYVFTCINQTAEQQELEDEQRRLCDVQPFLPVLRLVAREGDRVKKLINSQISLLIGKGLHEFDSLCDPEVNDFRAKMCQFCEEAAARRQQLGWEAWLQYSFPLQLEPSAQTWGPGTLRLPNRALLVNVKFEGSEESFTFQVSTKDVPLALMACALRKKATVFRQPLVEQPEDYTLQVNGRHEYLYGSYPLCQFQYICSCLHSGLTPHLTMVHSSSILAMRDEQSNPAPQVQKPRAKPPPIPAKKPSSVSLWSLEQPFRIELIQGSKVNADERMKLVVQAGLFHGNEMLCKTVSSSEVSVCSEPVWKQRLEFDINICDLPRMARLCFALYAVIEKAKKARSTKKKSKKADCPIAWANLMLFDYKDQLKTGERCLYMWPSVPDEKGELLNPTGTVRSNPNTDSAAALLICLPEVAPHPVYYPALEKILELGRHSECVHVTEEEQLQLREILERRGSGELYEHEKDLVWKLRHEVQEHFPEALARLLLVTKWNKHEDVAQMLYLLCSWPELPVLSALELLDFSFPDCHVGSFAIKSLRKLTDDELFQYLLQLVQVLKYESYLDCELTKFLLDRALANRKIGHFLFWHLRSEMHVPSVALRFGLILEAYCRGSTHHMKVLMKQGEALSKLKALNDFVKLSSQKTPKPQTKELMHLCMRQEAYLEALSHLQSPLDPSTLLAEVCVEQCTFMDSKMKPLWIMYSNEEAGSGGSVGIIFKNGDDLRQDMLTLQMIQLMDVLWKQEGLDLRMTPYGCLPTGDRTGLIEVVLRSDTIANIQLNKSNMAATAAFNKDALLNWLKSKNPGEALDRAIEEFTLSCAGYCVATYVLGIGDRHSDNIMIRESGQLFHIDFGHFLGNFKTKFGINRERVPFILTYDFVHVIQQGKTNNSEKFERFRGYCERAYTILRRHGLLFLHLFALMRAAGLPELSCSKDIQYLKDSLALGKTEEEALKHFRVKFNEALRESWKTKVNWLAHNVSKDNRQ
Chain of PI3Kδ (P27986 whole entry partner): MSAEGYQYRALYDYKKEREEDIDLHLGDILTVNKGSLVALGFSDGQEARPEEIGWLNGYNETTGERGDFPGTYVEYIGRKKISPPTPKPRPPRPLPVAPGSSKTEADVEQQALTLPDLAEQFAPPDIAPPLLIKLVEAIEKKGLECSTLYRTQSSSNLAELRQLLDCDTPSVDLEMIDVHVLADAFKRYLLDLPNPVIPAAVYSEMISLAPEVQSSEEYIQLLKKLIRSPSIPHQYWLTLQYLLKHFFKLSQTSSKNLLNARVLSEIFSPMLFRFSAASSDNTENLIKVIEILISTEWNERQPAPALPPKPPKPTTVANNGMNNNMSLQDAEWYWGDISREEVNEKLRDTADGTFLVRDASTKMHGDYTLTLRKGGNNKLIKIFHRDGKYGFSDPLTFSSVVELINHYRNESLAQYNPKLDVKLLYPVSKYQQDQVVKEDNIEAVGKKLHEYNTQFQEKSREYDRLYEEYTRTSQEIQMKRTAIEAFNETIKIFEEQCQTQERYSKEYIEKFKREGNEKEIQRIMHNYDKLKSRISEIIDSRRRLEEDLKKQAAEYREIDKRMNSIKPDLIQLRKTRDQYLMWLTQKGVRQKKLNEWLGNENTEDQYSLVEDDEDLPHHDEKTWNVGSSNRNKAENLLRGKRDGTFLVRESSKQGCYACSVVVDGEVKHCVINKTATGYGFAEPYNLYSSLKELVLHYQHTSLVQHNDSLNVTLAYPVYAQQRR
Outline: as §1

PI3Kβ = PI3Kβ (Homo sapiens (Human), UniProt P42338); details: bound given in uM
Chain of PI3Kβ (P42338 whole entry, the tested form may be a part): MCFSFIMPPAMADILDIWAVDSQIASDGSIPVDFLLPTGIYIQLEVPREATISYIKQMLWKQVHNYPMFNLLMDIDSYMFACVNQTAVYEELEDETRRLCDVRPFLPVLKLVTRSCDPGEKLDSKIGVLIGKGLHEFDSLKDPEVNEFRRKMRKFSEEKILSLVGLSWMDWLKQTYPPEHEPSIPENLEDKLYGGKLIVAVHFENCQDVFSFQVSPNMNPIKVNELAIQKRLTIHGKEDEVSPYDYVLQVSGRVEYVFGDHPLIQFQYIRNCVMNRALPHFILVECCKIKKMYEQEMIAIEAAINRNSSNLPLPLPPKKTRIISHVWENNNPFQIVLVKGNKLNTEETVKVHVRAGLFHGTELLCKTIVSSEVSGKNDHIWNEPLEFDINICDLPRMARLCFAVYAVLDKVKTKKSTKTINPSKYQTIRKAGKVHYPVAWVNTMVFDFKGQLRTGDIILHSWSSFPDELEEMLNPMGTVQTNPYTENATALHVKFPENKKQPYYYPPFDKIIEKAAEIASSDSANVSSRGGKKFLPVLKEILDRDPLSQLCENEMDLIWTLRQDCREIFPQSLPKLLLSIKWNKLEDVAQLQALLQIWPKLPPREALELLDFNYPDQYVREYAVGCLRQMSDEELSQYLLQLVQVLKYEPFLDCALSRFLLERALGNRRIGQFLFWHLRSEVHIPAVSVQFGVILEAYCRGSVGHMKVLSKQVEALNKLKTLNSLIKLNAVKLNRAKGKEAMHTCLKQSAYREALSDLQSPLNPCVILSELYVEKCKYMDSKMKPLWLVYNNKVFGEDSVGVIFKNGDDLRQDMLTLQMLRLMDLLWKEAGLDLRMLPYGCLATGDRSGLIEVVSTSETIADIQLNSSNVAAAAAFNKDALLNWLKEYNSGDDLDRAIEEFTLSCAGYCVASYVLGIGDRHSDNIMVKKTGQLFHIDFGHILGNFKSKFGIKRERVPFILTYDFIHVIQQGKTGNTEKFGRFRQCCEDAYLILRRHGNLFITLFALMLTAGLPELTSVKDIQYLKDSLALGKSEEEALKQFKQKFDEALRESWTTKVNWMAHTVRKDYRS
Chain of PI3Kβ (P27986 whole entry partner, the tested form may be a part): as the sequence (P27986 whole entry partner) above
Outline: (§2)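 Recombinant heterodimeric class I PI3K enzymes were assayed by TR-FRET. PIP3 product displaces fluorescently labelled PIP3 from the GRP-1 PH domain, lowering the signal; IC50 values are given in nM.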

PI3Kγ = PI3Kγ (Homo sapiens (Human), UniProt P48736); details: bound given in uM
Chain of PI3Kγ (P48736 whole entry): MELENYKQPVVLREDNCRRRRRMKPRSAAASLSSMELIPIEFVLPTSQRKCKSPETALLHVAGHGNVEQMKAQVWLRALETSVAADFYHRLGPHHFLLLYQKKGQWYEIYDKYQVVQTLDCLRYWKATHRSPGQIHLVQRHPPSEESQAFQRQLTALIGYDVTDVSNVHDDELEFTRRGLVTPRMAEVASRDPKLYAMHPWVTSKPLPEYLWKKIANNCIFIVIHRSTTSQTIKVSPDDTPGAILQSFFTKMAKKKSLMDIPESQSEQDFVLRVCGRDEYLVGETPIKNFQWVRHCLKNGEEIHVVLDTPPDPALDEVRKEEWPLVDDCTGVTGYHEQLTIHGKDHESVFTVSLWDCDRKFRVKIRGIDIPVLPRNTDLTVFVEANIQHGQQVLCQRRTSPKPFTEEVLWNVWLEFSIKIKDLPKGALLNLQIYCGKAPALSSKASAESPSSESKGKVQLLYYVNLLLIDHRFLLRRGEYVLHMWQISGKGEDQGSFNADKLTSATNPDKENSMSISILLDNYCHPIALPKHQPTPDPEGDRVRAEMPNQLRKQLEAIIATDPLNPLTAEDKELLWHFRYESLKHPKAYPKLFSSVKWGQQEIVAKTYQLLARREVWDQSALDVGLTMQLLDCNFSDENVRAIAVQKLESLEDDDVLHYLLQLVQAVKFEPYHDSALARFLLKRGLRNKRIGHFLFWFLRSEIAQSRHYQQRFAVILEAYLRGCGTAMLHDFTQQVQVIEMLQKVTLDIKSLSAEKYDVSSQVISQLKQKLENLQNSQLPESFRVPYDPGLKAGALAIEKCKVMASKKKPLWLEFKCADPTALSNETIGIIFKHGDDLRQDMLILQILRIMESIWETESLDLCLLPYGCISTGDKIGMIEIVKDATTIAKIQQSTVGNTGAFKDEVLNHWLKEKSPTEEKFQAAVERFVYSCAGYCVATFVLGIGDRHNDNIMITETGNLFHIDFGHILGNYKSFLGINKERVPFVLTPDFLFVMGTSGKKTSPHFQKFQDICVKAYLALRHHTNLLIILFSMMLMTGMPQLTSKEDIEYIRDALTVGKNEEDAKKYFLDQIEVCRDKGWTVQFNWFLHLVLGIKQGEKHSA
Chain of PI3Kγ (Q8WYR1 whole entry partner): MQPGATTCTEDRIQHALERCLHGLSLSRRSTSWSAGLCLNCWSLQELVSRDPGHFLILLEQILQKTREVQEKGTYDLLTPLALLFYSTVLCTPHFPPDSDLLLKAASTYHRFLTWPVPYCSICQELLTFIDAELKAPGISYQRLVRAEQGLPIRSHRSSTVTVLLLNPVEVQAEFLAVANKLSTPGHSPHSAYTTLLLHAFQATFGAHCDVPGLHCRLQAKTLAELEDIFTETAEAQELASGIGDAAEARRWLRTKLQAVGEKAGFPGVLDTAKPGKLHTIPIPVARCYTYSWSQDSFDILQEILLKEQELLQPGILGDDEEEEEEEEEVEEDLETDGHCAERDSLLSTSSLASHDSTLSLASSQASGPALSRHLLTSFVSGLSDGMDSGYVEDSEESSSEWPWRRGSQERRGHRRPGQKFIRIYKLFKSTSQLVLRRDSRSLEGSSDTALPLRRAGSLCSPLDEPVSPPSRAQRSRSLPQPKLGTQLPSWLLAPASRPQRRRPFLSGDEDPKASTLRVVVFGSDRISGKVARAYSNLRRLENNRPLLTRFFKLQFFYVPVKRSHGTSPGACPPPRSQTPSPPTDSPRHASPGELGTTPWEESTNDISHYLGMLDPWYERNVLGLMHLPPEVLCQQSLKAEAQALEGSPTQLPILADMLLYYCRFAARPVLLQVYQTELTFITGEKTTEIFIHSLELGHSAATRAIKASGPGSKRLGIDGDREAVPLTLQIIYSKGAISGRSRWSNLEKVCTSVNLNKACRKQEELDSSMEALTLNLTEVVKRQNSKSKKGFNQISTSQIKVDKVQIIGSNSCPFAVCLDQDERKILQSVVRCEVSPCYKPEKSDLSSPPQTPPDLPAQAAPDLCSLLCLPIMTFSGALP
Outline: as §2

IC50 (PI3Kα) | IC50 (PI3Kδ) | IC50 (PI3Kβ) | IC50 (PI3Kγ) | Structure (SMILES)
> 1 µM | < 100 nM | > 1 µM | > 1 µM | COc1cc(F)cc(C#Cc2c(N)ncnc2N[C@@H](C)c2nc3c(F)cccc3c(=O)n2-c2ccccc2)c1 [Compound 64a, (S)-2-(1-((6-amino-5-((3-fluoro-5-methoxyphenyl)ethynyl)pyrimidin-4-yl)amino)ethyl)-8-fluoro-3-phenylquinazolin-4(3H)-one]
> 1 µM | < 100 nM | > 1 µM | > 1 µM | COc1cc(F)cc(C#Cc2c(N)ncnc2N[C@@H](C)c2nc3cccc(F)c3c(=O)n2-c2ccccc2)c1 [Compound 65a, (S)-2-(1-((6-amino-5-((3-fluoro-5-methoxyphenyl)ethynyl)pyrimidin-4-yl)amino)ethyl)-5-fluoro-3-phenylquinazolin-4(3H)-one]
> 1 µM | < 100 nM | > 1 µM | > 1 µM | C[C@H](Nc1ncnc(N)c1C#Cc1cnccn1)c1nc2cccc(C(F)F)c2c(=O)n1-c1cc(F)cc(F)c1 [Compound 66a, (S)-2-(1-((6-amino-5-(pyrazin-2-ylethynyl)pyrimidin-4-yl)amino)ethyl)-5-(difluoromethyl)-3-(3,5-difluorophenyl)quinazolin-4(3H)-one]
> 1 µM | < 100 nM | > 1 µM | > 1 µM | C[C@H](Nc1ncnc(N)c1C#Cc1ccc(F)cn1)c1nc2cccc(C(F)(F)F)c2c(=O)n1-c1ccccc1 [Compound 68a, (S)-2-(1-((6-amino-5-((5-fluoropyridin-2-yl)ethynyl)pyrimidin-4-yl)amino)ethyl)-3-phenyl-5-(trifluoromethyl)quinazolin-4(3H)-one]
> 1 µM | < 100 nM | > 1 µM | > 1 µM | C[C@H](Nc1ncnc(N)c1C#Cc1ccc(F)cn1)c1nc2cccc(C(F)F)c2c(=O)n1-c1cccc(C#N)c1 [Compound 70a, (S)-3-(2-(1-((6-amino-5-((5-fluoropyridin-2-yl)ethynyl)pyrimidin-4-yl)amino)ethyl)-5-(difluoromethyl)-4-oxoquinazolin-3(4H)-yl)benzonitrile]
> 1 µM | < 100 nM | > 1 µM | > 1 µM | C[C@H](Nc1ncnc(N)c1C#Cc1cnccn1)c1nc2cccc(C(F)F)c2c(=O)n1-c1cccc(C#N)c1 [Compound 71a, (S)-3-(2-(1-((6-amino-5-(pyrazin-2-ylethynyl)pyrimidin-4-yl)amino)ethyl)-5-(difluoromethyl)-4-oxoquinazolin-3(4H)-yl)benzonitrile]
> 1 µM | < 100 nM | > 1 µM | > 1 µM | Cc1ccc(F)c2nc([C@H](C)Nc3ncnc(N)c3C#Cc3ccc(F)cn3)n(-c3cccc(C#N)c3)c(=O)c12 [Compound 72a, (S)-3-(2-(1-((6-amino-5-((5-fluoropyridin-2-yl)ethynyl)pyrimidin-4-yl)amino)ethyl)-8-fluoro-5-methyl-4-oxoquinazolin-3(4H)-yl)benzonitrile]
> 1 µM | < 100 nM | > 1 µM | > 1 µM | CC[C@H](Nc1ncnc(N)c1C#Cc1cnccn1)c1nc2cccc(C(F)F)c2c(=O)n1-c1cc(F)cc(F)c1 [Compound 74a, (S)-2-(1-((6-amino-5-(pyrazin-2-ylethynyl)pyrimidin-4-yl)amino)propyl)-5-(difluoromethyl)-3-(3,5-difluorophenyl)quinazolin-4(3H)-one]
> 1 µM | < 100 nM | > 1 µM | > 1 µM | C[C@H](Nc1ncnc(N)c1C#Cc1ccc(F)cn1)c1nc2cccc(C(F)F)c2c(=O)n1-c1cc(F)cc(F)c1 [Compound 77a, (S)-2-(1-((6-amino-5-((5-fluoropyridin-2-yl)ethynyl)pyrimidin-4-yl)amino)ethyl)-5-(difluoromethyl)-3-(3,5-difluorophenyl)quinazolin-4(3H)-one]
> 1 µM | < 100 nM | > 1 µM | > 1 µM | C[C@H](Nc1ncnc(N)c1C#Cc1ncc(F)cc1F)c1nc2cccc(Cl)c2c(=O)n1-c1ccccc1 [Compound 82a, (S)-2-(1-((6-amino-5-((3,5-difluoropyridin-2-yl)ethynyl)pyrimidin-4-yl)amino)ethyl)-5-chloro-3-phenylquinazolin-4(3H)-one]
> 1 µM | < 100 nM | > 1 µM | > 1 µM | C[C@H](Nc1ncnc(N)c1C#Cc1cnccn1)c1nc2cccc(Cl)c2c(=O)n1-c1cc(F)cc(F)c1 [Compound 85a, (S)-2-(1-((6-amino-5-(pyrazin-2-ylethynyl)pyrimidin-4-yl)amino)ethyl)-5-chloro-3-(3,5-difluorophenyl)quinazolin-4(3H)-one]
> 1 µM | < 100 nM | > 1 µM | > 1 µM | C[C@H](Nc1ncnc(N)c1C#Cc1cnccn1)c1nc2cccc(F)c2c(=O)n1-c1cc(F)cc(F)c1 [Compound 87a, (S)-2-(1-((6-amino-5-(pyrazin-2-ylethynyl)pyrimidin-4-yl)amino)ethyl)-3-(3,5-difluorophenyl)-5-fluoroquinazolin-4(3H)-one]
> 1 µM | < 100 nM | > 1 µM | > 1 µM | C[C@H](Nc1ncnc(N)c1C#Cc1ccc(F)cn1)c1nc2ccc(F)cc2c(=O)n1-c1ccccc1 [Compound 90a, (S)-2-(1-((6-amino-5-((5-fluoropyridin-2-yl)ethynyl)pyrimidin-4-yl)amino)ethyl)-6-fluoro-3-phenylquinazolin-4(3H)-one]
> 1 µM | < 100 nM | > 1 µM | > 1 µM | C[C@H](Nc1ncnc(N)c1C#Cc1ccc(F)cn1)c1nc2cccc(Cl)c2c(=O)n1-c1cccc(C#N)c1 [Compound 92a, (S)-3-(2-(1-((6-amino-5-((5-fluoropyridin-2-yl)ethynyl)pyrimidin-4-yl)amino)ethyl)-5-chloro-4-oxoquinazolin-3(4H)-yl)benzonitrile]
> 1 µM | < 100 nM | > 1 µM | > 1 µM | C[C@H](Nc1ncnc(N)c1C#Cc1cnccn1)c1nc2cccc(Cl)c2c(=O)n1-c1cccc(C#N)c1 [Compound 93a, (S)-3-(2-(1-((6-amino-5-(pyrazin-2-ylethynyl)pyrimidin-4-yl)amino)ethyl)-5-chloro-4-oxoquinazolin-3(4H)-yl)benzonitrile]
> 1 µM | < 100 nM | > 1 µM | > 1 µM | C[C@H](Nc1ncnc(N)c1C#Cc1ccc(F)cn1)c1nc2ccc(F)cc2c(=O)n1-c1cccc(C#N)c1 [Compound 94a, (S)-3-(2-(1-((6-amino-5-((5-fluoropyridin-2-yl)ethynyl)pyrimidin-4-yl)amino)ethyl)-6-fluoro-4-oxoquinazolin-3(4H)-yl)benzonitrile]
> 1 µM | < 100 nM | > 1 µM | > 1 µM | C[C@H](Nc1ncnc(N)c1C#Cc1cnccn1)c1nc2ccc(F)cc2c(=O)n1-c1cccc(C#N)c1 [Compound 95a, (S)-3-(2-(1-((6-amino-5-(pyrazin-2-ylethynyl)pyrimidin-4-yl)amino)ethyl)-6-fluoro-4-oxoquinazolin-3(4H)-yl)benzonitrile]
> 1 µM | < 100 nM | > 1 µM | > 1 µM | C[C@H](Nc1ncnc(N)c1C#Cc1ccc(F)cn1)c1nc2ccc(F)cc2c(=O)n1-c1cccc(Cl)c1 [Compound 96a, (S)-2-(1-((6-amino-5-((5-fluoropyridin-2-yl)ethynyl)pyrimidin-4-yl)amino)ethyl)-3-(3-chlorophenyl)-6-fluoroquinazolin-4(3H)-one]
> 1 µM | < 100 nM | > 1 µM | > 1 µM | C[C@H](Nc1ncnc(N)c1C#Cc1cnccn1)c1nc2ccc(F)cc2c(=O)n1-c1cccc(Cl)c1 [Compound 97a, (S)-2-(1-((6-amino-5-(pyrazin-2-ylethynyl)pyrimidin-4-yl)amino)ethyl)-3-(3-chlorophenyl)-6-fluoroquinazolin-4(3H)-one]
> 1 µM | < 100 nM | > 1 µM | > 1 µM | C[C@H](Nc1ncnc(N)c1C#Cc1ccc(F)cn1)c1nc2cccc(F)c2c(=O)n1-c1cccc(F)c1 [Compound 99a, (S)-2-(1-((6-amino-5-((5-fluoropyridin-2-yl)ethynyl)pyrimidin-4-yl)amino)ethyl)-5-fluoro-3-(3-fluorophenyl)quinazolin-4(3H)-one]
> 1 µM | < 100 nM | > 1 µM | > 1 µM | C[C@H](Nc1ncnc(N)c1C#Cc1cnccn1)c1nc2c(F)cccc2c(=O)n1-c1cc(F)cc(F)c1 [Compound 100a, (S)-2-(1-((6-amino-5-(pyrazin-2-ylethynyl)pyrimidin-4-yl)amino)ethyl)-3-(3,5-difluorophenyl)-8-fluoroquinazolin-4(3H)-one]
> 1 µM | < 100 nM | > 1 µM | > 1 µM | C[C@H](Nc1ncnc(N)c1C#Cc1cnccn1)c1nc2cccc(F)c2c(=O)n1-c1cccc(F)c1 [Compound 101a, (S)-2-(1-((6-amino-5-(pyrazin-2-ylethynyl)pyrimidin-4-yl)amino)ethyl)-5-fluoro-3-(3-fluorophenyl)quinazolin-4(3H)-one]
> 1 µM | < 100 nM | > 1 µM | > 1 µM | C[C@H](Nc1ncnc(N)c1C#Cc1ncccn1)c1nc2cccc(Cl)c2c(=O)n1-c1cc(F)cc(F)c1 [Compound 103a, (S)-2-(1-((6-amino-5-(pyrimidin-2-ylethynyl)pyrimidin-4-yl)amino)ethyl)-5-chloro-3-(3,5-difluorophenyl)quinazolin-4(3H)-one]
